The text below walks through data of PMC12916490 (Molecular Psychiatry, 2025).

One series concerns the target T1, h5-HT2C (Homo sapiens, UniProt P28335).
T1 sequence (P28335 33-458): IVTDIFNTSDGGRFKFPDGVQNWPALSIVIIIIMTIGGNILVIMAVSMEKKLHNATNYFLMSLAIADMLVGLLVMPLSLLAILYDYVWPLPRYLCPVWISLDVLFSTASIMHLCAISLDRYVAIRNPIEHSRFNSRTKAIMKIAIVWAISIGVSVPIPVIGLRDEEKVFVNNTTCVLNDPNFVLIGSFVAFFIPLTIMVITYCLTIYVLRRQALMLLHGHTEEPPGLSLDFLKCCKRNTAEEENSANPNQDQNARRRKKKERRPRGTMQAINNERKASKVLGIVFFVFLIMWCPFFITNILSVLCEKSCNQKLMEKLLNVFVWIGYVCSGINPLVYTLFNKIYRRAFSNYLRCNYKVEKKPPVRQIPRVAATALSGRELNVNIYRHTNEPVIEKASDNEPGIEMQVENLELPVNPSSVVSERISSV
In words: cell-based. The following applies: for Emax: read-out: IP1 formation Emax h5-HT2C (95% CI).

For another series, the system named is C57BL/6 J mice. In words: HTR after single fixed doses prior to brain and blood collection (20 min). Format: in vivo, mouse. Particulars: single s.c. dose: DOM 3, DOPR 1, DOBU 3, DOAM 10, 2,5-DMA 10 mg/kg. How it is done:
In these experiments, HTR activity was monitored for 20 min, followed by cardiac puncture and decapitation. Whole blood (~ 300–500 µL per sample) was collected via cardiac puncture, placed in tubes containing 10 µL of heparin (1000 IU/mL), and immediately stored on ice until centrifugation. Blood samples were spun at 3300 rpm at 4 °C and plasma was decanted into vials on dry ice until storage at -80 °C. Whole brains were collected immediately after cardiac puncture. Brains were frozen on dry ice, weighed, then placed into 7-mL homogenizing tubes with ceramic beads, and stored at -80 °C.
Data analysis was performed with Prism software (version 10.1.2, GraphPad Software, Boston, MA, USA). The IC50 values from the radioligand binding assays were determined by nonlinear regression, using three independent concentration-response curves fitted to a one-site model. The Cheng-Prusoff equation was used to calculate Kᵢ values for the competing ligands. EC50 values were determined by applying nonlinear regression to concentration-response curves. Bias factors (β) were calculated based on the relative intrinsic activity approach. More detailed information can be found in the Supplementary information. Mean values for total number of HTR, change in body temperature from pre to post session (Δ°C), and total distance traveled (cm) for each drug dose were compared (p < 0.05) via Welch’s ANOVA with Dunnett’s T3 post test, comparing all doses to respective vehicle controls (0 mg/kg). Welch’s ANOVA with Dunnett’s T3 post test was also used to compare drug concentrations, but the data were compared to DOM in this case. Dose–response relationships for HTR and locomotor activities were plotted using bell-shaped curve fits, while temperature change data were plotted using four-parameter non-linear regression curve fits. The ascending phase of the HTR curve for each drug was used to determine ED50 potency values from four parameter non-linear regression fits. […]

Series [1] can be described thus: In vivo microdialysis (striatum) with plasma and brain levels after co-administration of DOM and DOAM. More on the design: species or system mouse. The following applies: 0.5 mg/kg s.c. each; for Dialysate concentration (striatal microdialysis) after co-administration of DOM and DOAM: dialysate collected 30 min post injection, detection limit 0.04 ng/mL; for concentration at 30 min: both sexes, C57BL/6JRj, mouse, subcutaneous, 30 min post injection, mice. Here is the method: Microdialysis experiments were conducted as previously reported with minor modifications; involved procedures were approved by the Cantonal Veterinary Office Basel-Stadt, in accordance with Swiss law. Three male and two female C57BL/6JRj mice (Janvier Labs, France) aged 11–14 weeks were used. During stereotactic surgeries, a guide cannula (CMA7; CMA Microdialysis AB, Sweden) directed to the striatum was implanted at 0.6 AP, 1.8 ML and -1.5 DV from bregma and fixed with dental cement. On the day of microdialysis, a microdialysis probe (CMA7, 3-mm probe length) was inserted into the guide cannula and perfused with artificial cerebrospinal fluid (119 mM NaCl, 11 mM D-glucose, 26.2 mM NaHCO3, 2.5 mM KCl, 1.3 mM MgCl2, 1 mM NaH2PO4, and 2.5 mM CaCl2) at 1 µL/min. The dialysate was collected for 30 min before s.c. injection of a mixture of DOM and DOAM (dissolved in DMSO/Tween80/saline; 1:1:18) yielding a dose of 0.5 mg/kg body weight for each substance. The dialysate post injection was collected for 30 min followed by decapitation under isoflurane anesthesia. Plasma obtained from trunk blood and homogenates of the forebrains (0.5 g brain tissue per 1 mL ice-cold water) were prepared for LC–MS/MS analysis. One hemisphere of the brain from each mouse was fixed in 4% paraformaldehyde, sectioned, and stained with Hoechst dye (2 µg/mL for 30 min) to confirm the placement of the microdialysis probe in the striatum. After running microdialysis in one or two mice, the recoveries of the microdialysis probes were assessed by collecting dialysate for 15 min at 1 µL/min with the probe immersed in a mixture of DOM and DOAM (1 µg/mL each; in artificial cerebrospinal fluid).
Data analysis was performed with Prism software (version 10.1.2, GraphPad Software, Boston, MA, USA). The IC50 values from the radioligand binding assays were determined by nonlinear regression, using three independent concentration-response curves fitted to a one-site model. The Cheng-Prusoff equation was used to calculate Kᵢ values for the competing ligands. EC50 values were determined by applying nonlinear regression to concentration-response curves. Bias factors (β) were calculated based on the relative intrinsic activity approach. More detailed information can be found in the Supplementary information. Mean values for total number of HTR, change in body temperature from pre to post session (Δ°C), and total distance traveled (cm) for each drug dose were compared (p < 0.05) via Welch’s ANOVA with Dunnett’s T3 post test, comparing all doses to respective vehicle controls (0 mg/kg). Welch’s ANOVA with Dunnett’s T3 post test was also used to compare drug concentrations, but the data were compared to DOM in this case. Dose–response relationships for HTR and locomotor activities were plotted using bell-shaped curve fits, while temperature change data were plotted using four-parameter non-linear regression curve fits. The ascending phase of the HTR curve for each drug was used to determine ED50 potency values from four parameter non-linear regression fits. For combined DOM and DOAM administration, the plasma, brain tissue, and brain dialysate drug concentrations were compared using paired t-tests (p < 0.05). Ratios were compared using Holm-Sidak’s post hoc test following a repeated-measures one-way ANOVA (F (1.709, 6.835) = 70.80; p < 0.0001).

The test system of the next series is mice. More on the design: method as in ref 20 (Halberstadt et al. 2020). The following applies: ref 20 (Halberstadt et al. 2020), cited from earlier work; for HTR in mice ED50 (95% CI): i.p.
The mark [2] stands for this setting: brain (forebrain homogenate), read-out: Brain tissue level after co-administration of DOM and DOAM.
Setting [3] is: plasma, read-out: Plasma level after co-administration of DOM and DOAM.

Where two headings read alike, the source gives them in different places.

For `COc1ccc(OC)c(CC(C)N)c1.Cl` (centres unmarked) [2,5-DMA, 2,5-Dimethoxyamphetamine hydrochloride], on h5-HT2C, the EC50 (in general, the concentration that produces a half-maximal response) was found to be 124 nM and the Emax (as a rule, the maximal effect, on the per cent scale that the assay sets) came to 103%. Also, in the series on C57BL/6 J mice, the HTR came out at 19 count/20 min.
As to `CCCCCc1cc(OC)c(CC(C)N)cc1OC` (centres unmarked) [DOAM, 4-amyl-2,5-dimethoxyamphetamine], at h5-HT2C, the EC50 is 0.9 nM and the Emax is 94%. The molecule also gave an HTR in the series on C57BL/6 J mice of 30 count/20 min. For the same molecule, the “Dialysate concentration (striatal microdialysis) after co-administration of DOM and DOAM” value in series [1] was less than 0.04 ng/mL. Further, in series [1] (setting [2]), the concentration at 30 min stood at 276 ng/g. The concentration at 30 min in series [1] (setting [3]) came to 12 ng/mL.
Consider `CCCCc1cc(OC)c(CC(C)N)cc1OC` (centres unmarked) [DOBU, 4-butyl-2,5-dimethoxyamphetamine], for which the EC50 at h5-HT2C is 0.13 nM. Also, at h5-HT2C (normalized to maximal effect of 5-HT), the Emax came to 95%. In addition, the HTR with C57BL/6 J mice is given as 37 count/20 min. Besides, in the series on mice, the “HTR in mice ED50 (95% CI)” value is on record as 1.17 mg/kg.
As for `CCc1cc(OC)c(CC(C)N)cc1OC` (centres unmarked) [DOET, 4-ethyl-2,5-dimethoxyamphetamine], in the series with mice, the “HTR in mice ED50 (95% CI)” value is reported as 0.20 (0.11–0.36) mg/kg and the “HTR in mice Emax” value is 122 total HTR count.
On to `COc1cc(CC(C)N)c(OC)cc1C` (centres unmarked) [DOM, 4-methyl-2,5-dimethoxyamphetamine], for which the “Dialysate concentration (striatal microdialysis) after co-administration of DOM and DOAM” value in series [1] came out at 0.82 ng/mL. Also, the concentration at 30 min in series [1] (setting [2]) is 463 ng/g; in series [1] (setting [3]), 26 ng/mL.
For the molecule `CCCc1cc(OC)c(CC(C)N)cc1OC.Cl` (centres unmarked) [DOPR, 4-propyl-2,5-dimethoxyamphetamine hydrochloride], at h5-HT2C, it took 0.93 nM to reach a half-maximal effect (EC50) and the Emax came out at 99%.
